The values below come from ChEMBL document CHEMBL4052588, “Design of a Biased Potent Small Molecule Inhibitor of the Bromodomain and PHD Finger-Containing (BRPF) Proteins Suitable for Cellular and in Vivo Studies” (J Med Chem, 2017).

In one assay the target is T1, Peregrin (Homo sapiens, UniProt P55201).
T1 sequence (P55201 whole entry): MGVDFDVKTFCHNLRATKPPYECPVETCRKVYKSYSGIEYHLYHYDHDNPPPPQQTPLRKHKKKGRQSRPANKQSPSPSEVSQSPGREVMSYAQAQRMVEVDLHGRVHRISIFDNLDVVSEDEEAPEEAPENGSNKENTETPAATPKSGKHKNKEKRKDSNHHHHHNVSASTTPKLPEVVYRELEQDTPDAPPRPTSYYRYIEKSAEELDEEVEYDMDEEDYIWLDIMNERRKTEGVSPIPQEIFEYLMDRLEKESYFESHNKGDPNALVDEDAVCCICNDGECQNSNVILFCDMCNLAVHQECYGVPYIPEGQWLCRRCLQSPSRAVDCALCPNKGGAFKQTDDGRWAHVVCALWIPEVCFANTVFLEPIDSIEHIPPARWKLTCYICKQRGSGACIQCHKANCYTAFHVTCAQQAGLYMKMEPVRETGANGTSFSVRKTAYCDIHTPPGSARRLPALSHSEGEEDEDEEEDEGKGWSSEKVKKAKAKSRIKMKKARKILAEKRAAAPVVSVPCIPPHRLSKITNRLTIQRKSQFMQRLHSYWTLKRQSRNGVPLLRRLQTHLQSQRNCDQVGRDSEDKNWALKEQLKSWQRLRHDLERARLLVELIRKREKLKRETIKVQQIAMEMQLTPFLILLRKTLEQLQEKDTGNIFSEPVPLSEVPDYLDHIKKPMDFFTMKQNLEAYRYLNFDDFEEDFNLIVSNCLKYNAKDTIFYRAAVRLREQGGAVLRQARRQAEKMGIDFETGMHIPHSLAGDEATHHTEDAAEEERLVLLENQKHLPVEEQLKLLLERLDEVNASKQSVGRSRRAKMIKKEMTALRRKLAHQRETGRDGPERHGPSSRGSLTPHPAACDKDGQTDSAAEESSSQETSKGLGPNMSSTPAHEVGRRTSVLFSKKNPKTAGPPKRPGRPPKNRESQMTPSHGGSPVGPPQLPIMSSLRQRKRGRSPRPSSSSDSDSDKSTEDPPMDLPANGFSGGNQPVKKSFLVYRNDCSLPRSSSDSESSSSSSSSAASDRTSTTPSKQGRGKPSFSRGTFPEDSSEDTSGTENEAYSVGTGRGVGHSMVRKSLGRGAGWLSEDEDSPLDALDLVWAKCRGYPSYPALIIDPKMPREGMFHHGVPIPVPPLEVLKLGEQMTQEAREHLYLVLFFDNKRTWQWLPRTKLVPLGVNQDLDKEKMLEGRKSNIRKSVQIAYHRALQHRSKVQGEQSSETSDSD
The assay is described as follows: Inhibition of human BRPF1 expressed in Escherichia coli BL21 after 1 hr by BROMOscan assay.

Assay [1] has as its target Bromodomain-containing protein 4 (Homo sapiens, UniProt O60885). In words: Inhibition of human BRD4-BD1 expressed in Escherichia coli BL21 after 1 hr by BROMOscan assay.
The target of assay [2] is T2, Bromodomain and PHD finger-containing protein 3 (Homo sapiens) (UniProt Q9ULD4).
T2 sequence (whole entry): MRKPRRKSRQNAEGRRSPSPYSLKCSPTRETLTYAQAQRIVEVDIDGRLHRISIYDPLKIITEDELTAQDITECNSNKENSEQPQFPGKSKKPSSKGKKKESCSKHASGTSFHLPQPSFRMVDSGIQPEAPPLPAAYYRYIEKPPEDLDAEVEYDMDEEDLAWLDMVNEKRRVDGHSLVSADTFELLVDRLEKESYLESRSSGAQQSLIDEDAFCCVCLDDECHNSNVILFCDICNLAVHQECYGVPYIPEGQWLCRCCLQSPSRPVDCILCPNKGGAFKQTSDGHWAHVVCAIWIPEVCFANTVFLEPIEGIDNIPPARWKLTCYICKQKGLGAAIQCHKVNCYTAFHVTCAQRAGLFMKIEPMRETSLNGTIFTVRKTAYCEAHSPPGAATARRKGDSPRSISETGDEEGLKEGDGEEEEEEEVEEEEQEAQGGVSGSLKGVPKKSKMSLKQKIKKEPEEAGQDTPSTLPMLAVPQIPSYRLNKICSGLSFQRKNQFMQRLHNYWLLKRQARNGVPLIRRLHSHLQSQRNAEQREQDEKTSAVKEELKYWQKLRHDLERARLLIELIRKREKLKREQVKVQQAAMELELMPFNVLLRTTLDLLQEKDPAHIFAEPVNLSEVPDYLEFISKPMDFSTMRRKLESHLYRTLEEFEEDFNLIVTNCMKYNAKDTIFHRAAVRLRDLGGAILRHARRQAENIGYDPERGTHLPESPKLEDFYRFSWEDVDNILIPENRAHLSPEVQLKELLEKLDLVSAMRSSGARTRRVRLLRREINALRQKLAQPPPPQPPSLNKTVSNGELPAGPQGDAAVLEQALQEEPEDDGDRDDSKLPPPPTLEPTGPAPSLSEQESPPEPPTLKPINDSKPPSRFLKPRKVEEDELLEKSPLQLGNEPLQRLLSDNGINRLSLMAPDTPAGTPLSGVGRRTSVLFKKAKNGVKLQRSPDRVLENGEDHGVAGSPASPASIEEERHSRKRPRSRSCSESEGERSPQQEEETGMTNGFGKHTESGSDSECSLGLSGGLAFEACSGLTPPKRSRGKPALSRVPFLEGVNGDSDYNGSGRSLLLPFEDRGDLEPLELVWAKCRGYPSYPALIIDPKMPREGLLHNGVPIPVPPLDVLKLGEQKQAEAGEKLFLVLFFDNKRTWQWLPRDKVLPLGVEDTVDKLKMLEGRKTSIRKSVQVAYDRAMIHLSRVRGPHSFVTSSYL

What is called IC50 is the concentration that gives 50% inhibition. A higher IC50 goes with weaker potency. In general, ΔTm refers to the shift of the melting midpoint relative to a reference. As for `Cc1cc2cc(NS(=O)(=O)c3ccc(C#N)cc3)ccc2n(C)c1=O`, the IC50 against Peregrin was determined as 0.0079 µM; in assay [1], 4.5 µM. The ΔTm in assay [2] was 4.5 °C.

For the molecule `COc1cc2c(cc1NS(=O)(=O)c1ccc(C#N)cc1)c(C)cc(=O)n2C`, the results for the 50% inhibitory concentration (IC50) (against Peregrin; in assay [1]) were 0.06 µM and 17 µM, respectively.

As to `COc1ccccc1C(=O)Nc1cc2cc(C)c(=O)n(C)c2cc1N1CCCC1`, the IC50 against Peregrin was 0.22 µM; in assay [1] it was 4.6 µM.

As to `Cn1c(=O)ccc2cc(NS(=O)(=O)c3ccc(C#N)c(Cl)c3)ccc21`, the half-maximal inhibitory concentration (IC50) against Peregrin was found to be 0.062 µM; in assay [1], 7.2 µM.

On to `Cc1cc(C#N)ccc1S(=O)(=O)Nc1ccc2c(ccc(=O)n2C)c1`, for which the ΔTm in assay [2] amounted to 2.4 °C.

`CCc1cc2cc(NS(=O)(=O)c3ccc(C#N)cc3)ccc2n(CC)c1=O`: the IC50 (against Peregrin; in assay [1]) was above 100 µM throughout.
